Results as given in patent publication US6541506B1, “Antifungal enediynes” (Phytera Incorporated, priority 1999, dated 2003).
In brackets after ≈: the same amount, converted by molar mass.

Key:
C. albicans DSY1024 = assay: Candida growth inhibition (XTT), C. albicans DSY1024; type: cell-based; details: C. albicans DSY1024 (Table 4)
Protocol: (§1) There are numerous assays that can be used to measure the inhibition of growth of a fungus such as Candida. In one example, cultures of Candida, e.g., C. albicans strains DSY1024 and SC5314, C. krusei ATCC 6258, and C. glabrata ATCC 90030, are subcultured from cryopreserved stocks onto Sabouraud's dextrose agar plates. Blastoconidia are suspended into RPMI-MOPS medium and inoculated (500 cfu/well) into 96-well plates containing test compounds in a final volume of 100 μL/well. After 22 hours at 35° C., 25 μL of XTT (2,3-bis(2-methoxy-4-nitro-5-sulfophenyl)-5-(phenylamino)carbonyl]-2H-tetrazolium hydroxide), (100 μg/mL) with PMS (phenazine methyl sulfate, 5 μM) are added to each well, followed by 2 hours of shaking. Growth is assessed spectrophotometrically by measuring the appearance of soluble formazan stain at 450 nm using an Emax microplate reader. Validity of the assay is confirmed by determination of the C. albicans minimum inhibitory concentration (MIC) for known antifungal agents such as amphotericin B, 5-flucytosine, fluconazole, nikkomycin Z, and polyoxin D.
LP416E8 (AC-05081-T4-3) was an organic extract of a manipulated plant cell culture from A. corsicum.

Candida = assay: Anti-Candida activity by backbone length; type: cell-based; details: X=7
Excerpt: The variable X denotes the length of a saturated carbon backbone. The antifungal activity of the claimed compounds changes in part based on the length of this backbone. […] Preferably, X is an integer between 5 and 7, inclusive, although longer carbon chains (X=8-10) may preserve or increase antifungal activity.

M. canis = assay: Dermatophyte growth inhibition (microdilution, NCCLS M27A), M. canis; type: cell-based, Microsporum canis
Protocol: (§2) The compounds of the invention are also effective against dermatophytes. Testing was performed using a microdilution method based on the NCCLS M27A antifungal protocol. Compounds to be tested were prepared in DMSO and diluted to the appropriate concentration in RPMI 1640 medium (the dermatophyte growth medium). An inoculum of each test organism was prepared from oatmeal agar plates to contain 0.5-2.5×10^3 conidia/mL. One hundred microliters of the inoculum was added to each well of a 96-well microtiter plate containing 4 μL of a test compound and 96 μL of RPMI 1640. Terbinafine (sold under the brand name Lamisil®) was used as a positive control.

T. rubrum = assay: Dermatophyte growth inhibition (microdilution, NCCLS M27A), T. rubrum; type: cell-based, Trichophyton rubrum
Protocol: as §2

T. tonsurans = assay: Dermatophyte growth inhibition (microdilution, NCCLS M27A), T. tonsurans; type: cell-based
Protocol: as §2

T. mentagrophytes = assay: Dermatophyte growth inhibition (microdilution, NCCLS M27A), T. mentagrophytes; type: cell-based
Protocol: as §2

C. albicans SC5314 = assay: Candida growth inhibition (XTT), C. albicans SC5314; type: cell-based
Protocol: as §1

SMILES: O=C(O)CCCCCCC/C=C\C#CC#Cc1ccco1 [Compound 5]
- IC50 (C. albicans DSY1024): 3.9 ng/mL (≈ 0.0137 µM)
- MIC (C. albicans DSY1024): 7.8 ng/mL (≈ 0.0274 µM)
- anti-Candida activity (ranking by backbone length X) (Candida): greatest anti-Candida activity

SMILES: O=C(O)CCCCCCC=CC#CC#Cc1ccco1 [Compound 3]
- MIC (M. canis; M. canis, four days at 35° C., visual inspection): 2.0 µg/mL (≈ 7.4 µM)
- IC50 (C. albicans DSY1024): 503 ng/mL (≈ 1.86 µM)
- MIC (C. albicans DSY1024): 1000 ng/mL (≈ 3.7 µM)
- MIC (T. rubrum; T. rubrum, four days at 35° C., visual inspection): 8000 ng/mL (≈ 29.6 µM)
- MIC (T. tonsurans; T. tonsurans, four days at 35° C., visual inspection): 2.0 µg/mL (≈ 7.4 µM)
- MIC (T. mentagrophytes; T. mentagrophytes, four days at 35° C., visual inspection): 2000 ng/mL (≈ 7.4 µM)

SMILES: O=C(O)CCCCCC=CC#CC#Cc1ccco1 [Compound 2]
- IC50 (C. albicans DSY1024): 1817 ng/mL (≈ 7.09 µM)
- MIC (C. albicans DSY1024): 3125 ng/mL (≈ 12.2 µM)
- inhibition of growth of strain SC5314 (C. albicans SC5314): able to inhibit growth
- IC50 (C. albicans SC5314; C. albicans SC5314 (Table 4)): 2592 ng/mL (≈ 10.1 µM)
- MIC (C. albicans SC5314; C. albicans SC5314 (Table 4)): 3125 ng/mL (≈ 12.2 µM)

SMILES: CN(C/C=C/C#CC(C)(C)C)Cc1cccc2ccccc12 [Terbinafine, reference compound]
- MIC (M. canis; Microsporum canis, 96 h): 0.015 µg/mL (≈ 0.0515 µM)
- MIC (T. rubrum; Trichophyton rubrum, 96 h): 2 ng/mL (≈ 0.00686 µM)
- MIC (T. tonsurans; Trichophyton tonsurans, 96 h): 0.015 µg/mL (≈ 0.0515 µM)
- MIC (T. mentagrophytes; Trichophyton mentagrophytes, 96 h): 4 ng/mL (≈ 0.0137 µM)
